Assay results from PubChem BioAssay AID1963984 (Molecular Pharmacology Branch, DTP, NCI, 2024).

Test system: 233499-124-R-J3-PDC spheroids with HUVEC/MSC, viability
Assay: Anticancer human tumor 233499-124-R-J3-PDC patient-derived colon adenocarcinoma cell line growth inhibition [PI3K]
Conditions: for IC50: curve of first compound; for viability, T/C: stronger effect = lower value; active = viability on the fitted dose curve at most 10% of control; inactive = the rest
How it was run: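 Spheroid viability read-out. Co-cultures contained the tumor line plus HUVEC and human MSCs. Each agent was paired with a PI3K inhibitor (inavolisib, alpelisib, duvelisib, copanlisib) across half-log dilutions starting at clinical Cmax, or at 10 microM when Cmax was unknown.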
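Note: spheroids exposed to agents for seven days before readout.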
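Throughout, for viability, T/C: percent viability relative to DMSO vehicle control taken as 100%.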

C#Cc1c(F)ccc2cc(O)cc(-c3ncc4c(N5CC6CCC(C5)N6)nc(OCC56CCCN5CC(F)C6)nc4c3F)c12 (configuration not stated) + CC(Nc1ncnc2nc[nH]c12)c1cc2cccc(Cl)c2c(=O)n1-c1ccccc1
> 10 µM: IC50 (second compound 0.0316 µM) | IC50 (second compound 0.1 µM) | IC50 (second compound 0.316 µM) | IC50 (second compound 1 µM) | IC50 (second compound 3.16 µM) | IC50 (second compound 10 µM)
inactive: viability, T/C (second compound 0.0316 µM, first compound 0.0316 µM) 95% | viability, T/C (second compound 0.0316 µM, first compound 0.1 µM) 101% | viability, T/C (second compound 0.0316 µM, first compound 0.316 µM) 82.5% | viability, T/C (second compound 0.0316 µM, first compound 1 µM) 90.7% | viability, T/C (second compound 0.0316 µM, first compound 3.16 µM) 85.2% | viability, T/C (second compound 0.0316 µM, first compound 10 µM) 75.5% | viability, T/C (second compound 0.1 µM, first compound 0.0316 µM) 113% | viability, T/C (second compound 0.1 µM, first compound 0.1 µM) 114% | viability, T/C (second compound 0.1 µM, first compound 0.316 µM) 81.7% | viability, T/C (second compound 0.1 µM, first compound 1 µM) 94.7% | viability, T/C (second compound 0.1 µM, first compound 3.16 µM) 84% | viability, T/C (second compound 0.1 µM, first compound 10 µM) 73.2% | viability, T/C (second compound 0.316 µM, first compound 0.0316 µM) 112% | viability, T/C (second compound 0.316 µM, first compound 0.1 µM) 92.1% | viability, T/C (second compound 0.316 µM, first compound 0.316 µM) 105% | viability, T/C (second compound 0.316 µM, first compound 1 µM) 90.6% | viability, T/C (second compound 0.316 µM, first compound 3.16 µM) 87.9% | viability, T/C (second compound 0.316 µM, first compound 10 µM) 69.7% | viability, T/C (second compound 1 µM, first compound 0.0316 µM) 102% | viability, T/C (second compound 1 µM, first compound 0.1 µM) 102% | viability, T/C (second compound 1 µM, first compound 0.316 µM) 108% | viability, T/C (second compound 1 µM, first compound 1 µM) 95.5% | viability, T/C (second compound 1 µM, first compound 3.16 µM) 109% | viability, T/C (second compound 1 µM, first compound 10 µM) 90.6% | viability, T/C (second compound 3.16 µM, first compound 0.0316 µM) 110% | viability, T/C (second compound 3.16 µM, first compound 0.1 µM) 94.2% | viability, T/C (second compound 3.16 µM, first compound 0.316 µM) 101% | viability, T/C (second compound 3.16 µM, first compound 1 µM) 77.9% | viability, T/C (second compound 3.16 µM, first compound 3.16 µM) 87.5% | viability, T/C (second compound 3.16 µM, first compound 10 µM) 55.9% | viability, T/C (second compound 10 µM, first compound 0.0316 µM) 92.8% | viability, T/C (second compound 10 µM, first compound 0.1 µM) 89.4% | viability, T/C (second compound 10 µM, first compound 0.316 µM) 87.5% | viability, T/C (second compound 10 µM, first compound 1 µM) 84.7% | viability, T/C (second compound 10 µM, first compound 3.16 µM) 108% | viability, T/C (second compound 10 µM, first compound 10 µM) 84.7%
